{
  "source": "patent US12508322B2",
  "about": "“MIR-145 micelles for mitigating atherosclerosis” (University of Southern California, priority 2021, dated 2025)",
  "key": {"[1]": {"test_system": "VSMC phenotype in plaques (α-SMA, CD68, RUNX2, eYFP)", "experiment": "In vivo immunohistochemistry: cellular composition of aortic root plaques", "design": "species or system mice", "conditions": "one month after single dose", "procedure": "(§1) Subsequently, mice were fed a high fat diet (20-23% milkfat, 34% sucrose, 0.2% cholesterol, Teklad Envigo) for 2 weeks before intravenous tail vein injection of treatment (miR-145 micelles, miR-67 micelles, scrambled MCP-1 (NT) miR-145 micelles, free miR-145 (1 mg/kg miR or 0.7 mM total micelle), or PBS). Mice continued high fat diet for an additional 4 weeks or 8 weeks for short- and longer-term efficacy analyses. Mice were then euthanized via CO2 asphyxiation and perfused with PBS, 4% paraformaldehyde (PFA), and PBS again. Organs and aorta were carefully dissected and saved for additional analyses.\nAortic roots were cryosectioned as mentioned above. Tissue sections were blocked in 10% donkey serum with 1% BSA. Sections were subsequently stained with antibodies to GFP (Abcam ab6673), α-SMA (Abcam ab5694), CD68 (Abcam ab125212), and RUNX2 (Abcam ab192256) overnight at 4° C. Donkey anti-rabbit IgG Alexa Fluor 594 (Thermo Fisher, Waltham, MA, USA) and donkey anti-goat IgG Alex Fluor 488 (Thermo Fisher, Waltham, MA, USA) were used as secondary antibodies. Sections were counterstained with DAPI for the nuclei, mounted in ProLong Gold Antifade (Thermo Fisher, Waltham, MA, USA), and imaged using a confocal microscope (Nikon C2 CLSM, Nikon, Tokyo, Japan). Cells were then counted using ImageJ software. […]"}, "[2]": {"experiment": "Serum cholesterol quantification (HDL, LDL)", "assay_type": "in vivo, mice", "conditions": "two months post injection", "procedure": "Serum cholesterol levels were quantified using a high density lipoprotein (HDL) and low density lipoprotein (LDL) quantification kit (Sigma-Aldrich). Following the manufacturer's protocol, HDL and LDL were separated in serum using precipitation buffer. HDL and LDL samples were subsequently incubated with Reaction Mixes and fluorescence (ex: 535 nm/em: 587 nm) was measured using a plate reader (Varioskan LUX, Thermo Fisher, Waltham, MA, USA)."}, "atherosclerotic plaques": {"test_system": "atherosclerotic plaques", "experiment": "Analysis of atherosclerotic lesions (aortic root H&E, en face Oil Red O) after a single IV dose", "assay_type": "in vivo, mice", "procedure": "Male Myh11-CreER^T2 ROSA26 STOP-flox eYFP^+/+ Apoe^−/− mice and female Apoe^−/− mice were used for all studies as the Myh11 transgene is expressed only in male mice. Mice were genotyped by qPCR. Following previously reported methods, mice received ten intraperitoneal injections of 1 mg tamoxifen from 6 weeks of age to 8 weeks for 10 mg total of tamoxifen per 25 g of mouse body weight.\nas §1\nAtherosclerotic plaques were analyzed in two ways: 1) en face analysis of entire aorta with Oil Red O (ORO) lipid stain and 2) hematoxylin and eosin (H&E) stains of cross sections of aortic roots. Briefly, aortas were dissected from the root to the common iliac arteries. Excess adventitial fat was carefully removed and the aorta was fixed in 4% PFA overnight. The tissue was then cleaned in 78% methanol for 5 min before staining for 1 h with 0.2% ORO solution in methanol. The aortas were then washed twice with 78% methanol for 5 min each and cut open longitudinally before imaging with a stereomicroscope (Leica, Wetzlar, Germany). Quantification of positively stained lesions was done using ImageJ software (NIH, Bethesda, MD). Aortic roots were embedded in optimal cutting temperature compound (OCT) and flash frozen in 2-methylbutane and liquid nitrogen. Roots were sectioned at 10 μm thick sections and stained using H&E. Plaque and necrotic core area in three aortic root sections were quantified and averaged for each sample to obtain a mean±S.D. measurement."}, "miR-145": {"test_system": "miR-145", "experiment": "In vivo miR-145 expression in liver tissue (RT-qPCR)", "design": "species or system mice", "conditions": "one month post treatment", "procedure": "as §1\nAortic roots and liver tissue were obtained from treated mice. Tissues were weighed and lysed with Trizol (Invitrogen, Carlsbad, CA). miRNeasy Mini Kit (Qiagen, Hilden, Germany) was used to extract microRNA and the miScript II RT Kit (Qiagen, Hilden, Germany) was used to synthesize cDNA according to manufacturer's instructions. Real-time qRT-PCR was performed on the LightCycler 480 Real-Time PCR System ([…]) to evaluate miR-145 levels. RNU-6 was used as an internal control and the 2-AACT method was used to calculate relative expression changes."}, "[3]": {"conditions": "one month after single dose, 1 mg/kg miR IV"}},
  "data": [
    {"substance": "free miR-145: unformulated miR-145, 5′-GUCCAGUUUUCCCAGGAAUCCCU-3′ (SEQ ID NO: 2) (listed as RNA, chemistry not given here; listed as Homo sapiens)", "values": [
      {"measurement": "overlap in eYFP and α-SMA signal (α-SMA+YFP+/YFP+)", "setting": "[1]", "value": "30.0±22.1", "unit": "%"},
      {"measurement": "α-SMA expression within plaques (α-SMA+/DAPI)", "setting": "[1]", "value": "40.1±30.7", "unit": "%"},
      {"measurement": "serum HDL level", "setting": "[2]", "value": "increases"},
      {"measurement": "overall lesion area of the aorta (ORO en face)", "setting": "atherosclerotic plaques; [3]", "value": "7.0±1.3", "unit": "%"},
      {"measurement": "plaque area in the aortic root", "setting": "atherosclerotic plaques; [3]", "value": "2.1±0.9", "unit": "%"},
      {"measurement": "lesion area by en face ORO staining", "setting": "atherosclerotic plaques; two months after single dose", "value": "8.0±2.0", "unit": "%"},
      {"measurement": "plaque/lesional area in the aortic root", "setting": "atherosclerotic plaques; two months after single dose", "value": "10.8±5.0", "unit": "%"},
      {"measurement": "miR-145 expression in the liver, fold increase compared to PBS", "setting": "miR-145", "value": 1.5, "unit": "fold"}
    ]}
  ]
}
